From patent US6797710B2, “Heterocyclic derivatives and their use as antithrombotic agents” (Akzo Nobel N.V., priority 1997, dated 2004)
Structures can show the parent of a compound that is named as a salt. Where two headings read alike, the source gives them in different places. Values belong to the compound of their own block, whether it stands above or below them.

Columns and labels:
Human thrombin = Human thrombin (Homo sapiens, UniProt P00734); experiment: Anti-thrombin assay (hydrolysis of chromogenic substrate S-2238); format: biochemical; settings: substrate S-2238, TNP buffer pH 7.4, 37° C., read-out: Antithrombin activity: IC50
Text: Thrombin (Factor IIa) is a factor in the coagulation cascade.
This assay for anti-thrombin activity in a buffer system was used to assess the IC50-value of a test compound.
Preparation of test and reference compound solutions
Each concentration is stepwise diluted with the vehicle to give concentrations of 10^−3, 10^−4 and 10^−5 mol·l^−1. The dilutions, including the stock solution, are used in the assay (final concentrations in the reaction mixture: 3·10^−3; 10^−3; 3·10^−4; 10^−4; 3·10^−5; 10^−5; 3·10^−6 and 10^−6 mol·l^−1, respectively).
At room temperature 0.075 ml and 0.025 ml test compound or reference compound solutions or vehicle are alternately pipetted into the wells of a microtiter plate and these solutions are diluted with 0.115 ml and 0.0165 ml TNP buffer, respectively. […] The plate is incubated (with shaking for 30 s) at 37° C.
All data are collected in an IBM personal computer using LOTUS-MEASURE. For each compound concentration (expressed in mol·l^−1 reaction mixture) and for the blank the absorbance is plotted versus the reaction time in min.
Evaluation of responses: For each final concentration the maximum absorbance was calculated from the assay plot.

Bovine Factor Xa = Bovine Factor Xa (Bos taurus, UniProt P00743); experiment: Anti-factor Xa assay (hydrolysis of chromogenic substrate S-2222); format: biochemical; settings: substrate S-2222, TNP buffer, 37° C.
Text: Activated Factor X (Xa) is a factor in the coagulation cascade. […] This assay for anti-Xa activity in a buffer system was used to assess the IC50-value of the test compound.
In general the followed procedure and test conditions were analogous to those of the anti-thrombin assay as described above. Differences are indicated below.

in vitro = settings: human, Caco-2
Method: (§1) In this in vitro model the transepithelial transport properties of a compound are determined in monolayers of a human intestinal cell-line (Caco-2) in terms of a permeability coefficient (apparent permeability).
(§2) Caco-2 cells were obtained from the American Type Culture Collection and were used in passage nrs 25 to 35. Cells were maintained at 37° C. in 75 cm^2 culture flasks (Nunc) in Dulbecco's Modified Eagle's Medium (DNEM) supplemented with 1% of non-essential amino acid solution (100×), 10% of heat-inactivated fetal bovine serum, penicillin (100 U/ml) and streptomycin (100 μg/ml) in an atmosphere of 95% of air and 5% of CO2. The pH of the medium was 7.4. For experiments cells were grown on Transwell-COL™ collagen treated cell culture filter inserts (Costar, Cambridge, Mass., USA) with a surface area of 0.33 cm^2 The seeding density was 6.3×10^5 cells/cm^2. Culture medium was added on each side of the filter. The growth of the cells and degree of confluency was checked every 2-3 days microscopically. Confluent monolayers were used on day 23-24 after seeding, at which time the transepithelial electrical resistance of the monolayers was at a stable value of approximately 260 Ω·cm^2. Permeability experiments were performed with compound concentrations of 0.1 mM or 1 mM in the apical compartment in Hanks' Balanced Salt Solution with or without 0.5% (w/v) of bovine serum albumin. At 1, 2 and 3 hours after addition of compound to the cells the filters were placed into fresh acceptor compartments. In this way three one-hour samples were obtained. Compound concentration was determined in samples from acceptor compartments and donor compartment by HPLC or by measuring anti-thrombin activity. Permeability experiments of each compound were performed with 4 different filters. Results shown in the Table are means of the permeability between 2 and 3 hours after the start of the experiment of at least 2 filters.

Caco-2 permeability = settings: human, Caco-2
Method: as §1, §2

Caco-2 cells [1] = experiment: Caco-2 permeability; settings: 0.1 mM or 1 mM apical; mean of permeability between 2 and 3 hours, at least 2 filters
Method: as §1, §2

Caco-2 cells [2] = test system: Caco-2 cells
Method: as §1, §2

Bovine Factor Xa, sequence (P00743 41-180 limits assumed): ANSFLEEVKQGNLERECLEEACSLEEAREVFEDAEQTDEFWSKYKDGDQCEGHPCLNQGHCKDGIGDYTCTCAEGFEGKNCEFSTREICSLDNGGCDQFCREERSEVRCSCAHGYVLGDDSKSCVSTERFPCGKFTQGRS
Bovine Factor Xa, sequence (P00743 234-492 limits assumed): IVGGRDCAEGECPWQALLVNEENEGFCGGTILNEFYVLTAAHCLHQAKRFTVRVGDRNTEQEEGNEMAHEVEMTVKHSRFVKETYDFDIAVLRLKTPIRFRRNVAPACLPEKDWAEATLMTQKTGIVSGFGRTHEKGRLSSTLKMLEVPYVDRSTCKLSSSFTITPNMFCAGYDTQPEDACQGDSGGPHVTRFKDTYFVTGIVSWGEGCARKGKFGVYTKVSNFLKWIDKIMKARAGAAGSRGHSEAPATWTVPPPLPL

- IC50 (Human thrombin): 1.1 µM
Compound: Cc1c(C)c(S(=O)(=O)NNC(=O)NC(Cc2ccc3c(N)nccc3c2)C(=O)N2CCCCC2)c(C)c2c1OC(C)(C)CC2 (stereo not shown) [Example 10, 3,4-dihydro-2,2,5,7,8-pentamethyl-2H-1-benzopyran-6-ylsulfonic acid 2-[[[1-[(1-amino-6-isoquinolinyl)methyl]-2-oxo-2-(1-pineridinyl)ethyl]amino]carbonyl]hydrazide hydrochloride]

- IC50 (Bovine Factor Xa): 29 µM
Compound: COC(=O)C(Cc1cc2c(N)nccc2s1)NC(=O)CNS(=O)(=O)c1ccc2ccccc2c1 (stereo not shown) [Example 3, 3-(4-aminothieno[3,2c]pyridin-2-yl)-2-[[2-[(2-naphthalenylsulfonyl)amino]acetyl]amino]-propionic acid methyl ester hydrochloride]

- IC50 (Bovine Factor Xa): 14 µM
Compound: COCCN(C)C(=O)C(Cc1cc2c(N)nccc2s1)NS(=O)(=O)c1ccc2ccc(OC)cc2c1 (stereo not shown) [Example 26, 3-(4-aminothieno[3,2c]pyridin-2-yl)-N-(2-methoxyethyl)-2-[[(7-methoxy-2-naphthalenyl)-sulfonyl]amino]-N-methyl-propanamide hydrochloride]

- IC50 (Human thrombin): 0.53 µM
Compound: COc1ccc2ccc(S(=O)(=O)NC(Cc3cc4c(N)nccc4s3)C(=O)N3CCC(C)CC3)cc2c1 (stereo not shown) [Example 18, 1-[1-(4-aminothieno[3,2c]pyridin-2-yl)-2-[[(7-methoxy-2-naphthalenyl)sulfonyl]amino]-1-oxopropyl]-4-methylpiperidine hydrochloride]

- IC50 (Human thrombin): 6.8 µM
Compound: Nc1nccc2cc(CC(NC(=O)[C@H](CO)NS(=O)(=O)c3ccc4ccccc4c3)C(=O)N3CCCCC3)ccc12 (stereo partly drawn) [Example 7, (2S)-N-[1-[(1-amino-6-isoquinolinyl)methyl]-2-oxo-2-(1-piperidinyl)ethyl]-3-hydroxy-2-[(2-naphthalenylsulfonyl)amino]propanamide hydrochloride]

Further lines, the compound ahead of its results:

Compound: COC(=O)C(Cc1ccc2c(N)nccc2c1)NC(=O)CNS(=O)(=O)c1ccc2ccccc2c1 (stereo not shown) [Example 1, 3-(1-amino-6-isoquinolinyl)-2-[[2-[(2-naphthalenylsulfonyl)amino]acetyl]amino]propionic acid methyl ester hydrochloride]
- IC50 (Bovine Factor Xa): 48 µM

Compound: Cc1c(C)c(S(=O)(=O)NCC(=O)NC(Cc2ccc3c(N)nccc3c2)C(=O)N2CCCCC2)c(C)c2c1OC(C)(C)CC2.Cl (stereo not shown) [Example 5, N-[1-[(1-Amino-6-isoquinolinyl)methyl]-2-oxo-2-(1-piperidinyl)ethyl]-2-[[(3,4-dihydro-2,2,5,7,8-pentamethyl-2H-1-benzopyran-6-yl)sulfonyl]amino]acetamide hydrochloride]
- Papp A→B (in vitro): 3.7 ×10⁻⁶ cm/s
- IC50 (Human thrombin): 28 µM

Compound: CC1CCN(C(=O)C(Cc2cc3c(N)nccc3s2)NS(=O)(=O)CC23CCC(CC2=O)C3(C)C)CC1 [Example 30, 1-[3-(4-aminothieno[3,2c]pyridin-2-yl)-2-[[[1-(1R,4S)-(7,7-dimethyl-2-oxobicyclo[2,2,1]hept-1-yl)methyl]sulfonyl]amino]-1-oxopropyl]-4-methylpiperidine hydrochloride]
- IC50 (Human thrombin): 35 µM

Compound: CC1CCN(C(=O)C(Cc2cc3c(N)nccc3s2)NS(=O)(=O)c2ccc3oc4ccccc4c3c2)CC1 (stereo not shown) [Example 32, 1-[3-(4-aminothieno[3,2c]pyridin-2-yl)-2-[[(2-dibenzofuranyl)sulfonyl]amino]-1-oxopropyl]-4-methylpiperidine hydrochloride]
- IC50 (Human thrombin): 1.44 µM

Compound: Cl.Nc1nccc2cc(CC(NC(=O)CNS(=O)(=O)c3ccc4ccccc4c3)C(=O)N3CCCCC3)ccc12 (stereo not shown) [Example 2, N-[1-[(1-amino-6-isoquinolinyl)methyl]-2-oxo-2-(1-piperidinyl)ethyl]-2-[(2-naphthalenyl-sulfonyl)amino]acetamide hydrochloride]
- Papp A→B (Caco-2 permeability): 1.9 ×10⁻⁶ cm/s

Compound: Cl.Nc1nccc2sc(CC(NC(=O)CNS(=O)(=O)c3ccc4ccccc4c3)C(=O)N3CCCCC3)cc12 (stereo not shown) [Example 4, N-[1-[(4-Aminothieno[3,2c]pyridin-2-yl)methyl]-2-oxo-2-(1-piperidinyl)ethyl]-2-[(2-naphthalenylsulfonyl)amino]acetamide hydrochloride]
- Caco-2 Papp (apparent permeability) (Caco-2 cells [1]): 25 nm/s

Compound: 1-[3-[3-(aminoiminomethyl)phenyl]-2-[(2-naphthalenyl-sulfonyl)amino]-1-oxopropyl]-4-(methylsulfonyl)piperazine [Pefa 1286]
- Caco-2 Papp (apparent permeability) (Caco-2 cells [2]): 1.1 nm/s
